According to US20230295200A1 (REGENTS OF THE UNIVERSITY OF MICHIGAN, priority 2022, published 2023):

Tests used:
STAT5A = target: T1, STAT5A (Homo sapiens, UniProt P42229); assay: Fluorescence polarization (FP) binding assay, STAT5A; conditions: FP competition, 5 nM fluorescein-labeled tracer, 200 nM protein, PBS pH7.4
T1 sequence (P42229 1-794): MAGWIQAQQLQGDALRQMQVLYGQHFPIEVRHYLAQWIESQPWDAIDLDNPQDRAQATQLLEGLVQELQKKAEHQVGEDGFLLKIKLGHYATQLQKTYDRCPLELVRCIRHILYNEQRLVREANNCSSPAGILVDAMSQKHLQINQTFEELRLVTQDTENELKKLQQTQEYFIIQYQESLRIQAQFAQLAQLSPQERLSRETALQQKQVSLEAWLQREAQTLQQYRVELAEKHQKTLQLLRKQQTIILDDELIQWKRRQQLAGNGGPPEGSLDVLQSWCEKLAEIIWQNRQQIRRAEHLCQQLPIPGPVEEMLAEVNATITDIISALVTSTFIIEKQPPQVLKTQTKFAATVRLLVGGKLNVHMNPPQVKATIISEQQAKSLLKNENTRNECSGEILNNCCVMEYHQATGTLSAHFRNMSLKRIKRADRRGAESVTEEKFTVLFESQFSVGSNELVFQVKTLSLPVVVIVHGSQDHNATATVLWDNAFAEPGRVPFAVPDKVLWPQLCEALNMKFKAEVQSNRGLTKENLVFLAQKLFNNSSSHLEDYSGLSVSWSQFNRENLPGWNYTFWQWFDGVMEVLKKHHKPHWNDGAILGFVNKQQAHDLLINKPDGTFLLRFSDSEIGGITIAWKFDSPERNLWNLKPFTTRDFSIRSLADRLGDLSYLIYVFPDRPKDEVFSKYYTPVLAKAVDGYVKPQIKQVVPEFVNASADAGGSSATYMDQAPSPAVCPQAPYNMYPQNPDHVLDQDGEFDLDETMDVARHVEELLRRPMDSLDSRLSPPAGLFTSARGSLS
In short: (§1)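 Fluorescence polarization is read after STAT5 or STAT6 protein (200 nM) and a fluorescein-labeled tracer (5 nM) equilibrate for 1 h at room temperature in DTT-containing PBS pH 7.4 with BGG and Tween-20. Inhibition constants are obtained by nonlinear curve fitting.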

STAT6 protein = target: T2, STAT6 protein (Homo sapiens, UniProt P42226); assay: Fluorescence polarization (FP) binding assay, STAT6; conditions: FP competition, 5 nM fluorescein-labeled tracer, 200 nM protein, PBS pH7.4; read-out: Binding STAT6
T2 sequence (P42226 1-847): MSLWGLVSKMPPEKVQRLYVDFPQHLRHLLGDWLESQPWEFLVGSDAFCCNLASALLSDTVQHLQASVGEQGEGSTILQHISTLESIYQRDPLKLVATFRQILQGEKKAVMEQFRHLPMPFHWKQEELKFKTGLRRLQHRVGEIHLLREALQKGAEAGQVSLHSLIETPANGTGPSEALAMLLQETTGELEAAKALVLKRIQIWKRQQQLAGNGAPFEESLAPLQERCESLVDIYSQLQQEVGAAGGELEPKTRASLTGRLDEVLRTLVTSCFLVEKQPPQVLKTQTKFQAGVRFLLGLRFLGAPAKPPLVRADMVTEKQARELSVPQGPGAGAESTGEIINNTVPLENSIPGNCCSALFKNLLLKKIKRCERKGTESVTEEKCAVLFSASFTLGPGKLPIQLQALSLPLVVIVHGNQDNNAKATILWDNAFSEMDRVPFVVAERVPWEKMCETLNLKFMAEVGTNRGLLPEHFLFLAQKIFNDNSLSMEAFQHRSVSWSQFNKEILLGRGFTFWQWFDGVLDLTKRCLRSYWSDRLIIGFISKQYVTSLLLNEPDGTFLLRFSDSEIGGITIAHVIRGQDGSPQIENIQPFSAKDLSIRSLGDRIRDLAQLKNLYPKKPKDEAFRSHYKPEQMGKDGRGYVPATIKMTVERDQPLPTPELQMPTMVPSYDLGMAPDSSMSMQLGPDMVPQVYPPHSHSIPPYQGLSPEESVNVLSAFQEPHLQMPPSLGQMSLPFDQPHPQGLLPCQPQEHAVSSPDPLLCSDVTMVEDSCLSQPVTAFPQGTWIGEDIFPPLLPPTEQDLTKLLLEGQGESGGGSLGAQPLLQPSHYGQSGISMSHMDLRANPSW
In short: as §1

| Structure (SMILES) | Ki (STAT5A) [nM] | Ki (STAT6 protein) [nM] |
| --- | --- | --- |
| CC(=O)N1CCN(C(=O)[C@@H]2CCCN2C(=O)[C@@H](NC(=O)c2cc3cc(C(F)(F)P(=O)(O)O)ccc3s2)C(C)(C)C)C[C@@H]1c1ccccc1 [Compound 167, ((2-(((S)-1-((S)-2-((S)-4-acetyl-3-phenylpiperazine-1-carbonyl)pyrrolidin-1-yl)-3,3-dimethyl-1-oxobutan-2-yl)carbamoyl)benzo[b]thiophen-5-yl)difluoromethyl)phosphonic acid] | > 10000 | 1000 to 10000 |
| CC(C)(C)[C@H](NC(=O)c1cc2cc(C(F)(F)P(=O)(O)O)ccc2s1)C(=O)N1CCC[C@H]1C(=O)N1CCN(S(C)(=O)=O)[C@H](c2ccccc2)C1 [Compound 168, ((2-(((S)-3,3-dimethyl-1-((S)-2-((R)-4-(methylsulfonyl)-3-phenylpiperazine-1-carbonyl)pyrrolidin-1-yl)-1-oxobutan-2-yl)carbamoyl)benzo[b]thiophen-5-yl)difluoromethyl)phosphonic acid] | > 10000 | 1000 to 10000 |
| CC(C)(C)[C@H](NC(=O)c1cc2cc(C(F)(F)P(=O)(O)O)ccc2s1)C(=O)N1CCC[C@H]1C(=O)N1CCN(S(C)(=O)=O)[C@@H](c2ccccc2)C1 [Compound 169, ((2-(((S)-3,3-dimethyl-1-((S)-2-((S)-4-(methylsulfonyl)-3-phenylpiperazine-1-carbonyl)pyrrolidin-1-yl)-1-oxobutan-2-yl)carbamoyl)benzo[b]thiophen-5-yl)difluoromethyl)phosphonic acid] | > 10000 | 1000 to 10000 |
| CC(=O)N1CCN(C(=O)[C@@H](NC(=O)c2cc3cc(C(F)(F)P(=O)(O)O)ccc3s2)C(C)(C)C)[C@H](C(=O)N2CCO[C@H](c3ccccc3)C2)C1 [Compound 170, ((2-(((S)-1-((S)-4-acetyl-2-((R)-2-phenylmorpholine-4-carbonyl)piperazin-1-yl)-3,3-dimethyl-1-oxobutan-2-yl)carbamoyl)benzo[b]thiophen-5-yl)difluoromethyl)phosphonic acid] | 1000 to 10000 | 100 to 1000 |
| CC(=O)N1CCN(C(=O)[C@@H](NC(=O)c2cc3cc(C(F)(F)P(=O)(O)O)ccc3s2)C(C)(C)C)[C@H](C(=O)N2CCO[C@@H](c3ccccc3)C2)C1 [Compound 171, ((2-(((S)-1-((S)-4-acetyl-2-((S)-2-phenylmorpholine-4-carbonyl)piperazin-1-yl)-3,3-dimethyl-1-oxobutan-2-yl)carbamoyl)benzo[b]thiophen-5-yl)difluoromethyl)phosphonic acid] | > 10000 | 1000 to 10000 |
| CC(=O)N1CCN(C(=O)[C@@H](NC(=O)c2cc3cc(C(F)(F)P(=O)(O)O)ccc3s2)C(C)(C)C)[C@H](C(=O)N2CCC[C@H](c3ccccc3)C2)C1 [Compound 175, ((2-(((S)-1-((S)-4-acetyl-2-((R)-3-phenylpiperidine-1-carbonyl)piperazin-1-yl)-3,3-dimethyl-1-oxobutan-2-yl)carbamoyl)benzo[b]thiophen-5-yl)difluoromethyl)phosphonic acid] | 1000 to 10000 | 100 to 1000 |
| CC(=O)N1CCN(C(=O)[C@@H](NC(=O)c2cc3cc(C(F)(F)P(=O)(O)O)ccc3s2)C(C)(C)C)[C@H](C(=O)N2CC[C@H](c3ccccc3)C2)C1 [Compound 176, ((2-(((S)-1-((S)-4-acetyl-2-((R)-3-phenylpyrrolidine-1-carbonyl)piperazin-1-yl)-3,3-dimethyl-1-oxobutan-2-yl)carbamoyl)benzo[b]thiophen-5-yl)difluoromethyl)phosphonic acid] | 1000 to 10000 | 1000 to 10000 |
| CC(=O)N1CCN(C(=O)[C@@H](NC(=O)c2cc3cc(C(F)(F)P(=O)(O)O)ccc3s2)C(C)(C)C)[C@H](C(=O)N2CC[C@@H](c3ccccc3)C2)C1 [Compound 177, ((2-(((S)-1-((S)-4-acetyl-2-((S)-3-phenylpyrrolidine-1-carbonyl)piperazin-1-yl)-3,3-dimethyl-1-oxobutan-2-yl)carbamoyl)benzo[b]thiophen-5-yl)difluoromethyl)phosphonic acid] | > 10000 | 1000 to 10000 |
| CC(=O)N1CC[C@H]2CC[C@@H](C(=O)N3CCS(=O)(=O)C(c4ccccc4)C3)N2C(=O)[C@@H](NC(=O)c2cc3cc(C(F)(F)P(=O)(O)O)ccc3s2)C1 (stereo partly drawn) [Compound 178, ((2-(((5S,8S,10aR)-3-acetyl-8-(1,1-dioxido-2-phenylthiomorpholine-4-carbonyl)-6-oxodecahydropyrrolo[1,2-a][1,5]diazocin-5-yl)carbamoyl)benzo[b]thiophen-5-yl)difluoromethyl)phosphonic acid] | 1000 to 10000 | 100 to 1000 |
| CC(C)(C)[C@H](NC(=O)c1cc2cc(C(F)(F)P(=O)(O)O)ccc2s1)C(=O)N1CCCC[C@H]1C(=O)N1CCO[C@H](c2ccccc2)C1 [Compound 179, ((2-(((S)-3,3-dimethyl-1-oxo-1-((S)-2-((R)-2-phenylmorpholine-4-carbonyl)piperidin-1-yl)butan-2-yl)carbamoyl)benzo[b]thiophen-5-yl)difluoromethyl)phosphonic acid] | 1000 to 10000 | 100 to 1000 |
| CC(C)(C)[C@H](NC(=O)c1cc2cc(C(F)(F)P(=O)(O)O)ccc2s1)C(=O)N1CCCC[C@H]1C(=O)N1CCC[C@H](c2ccccc2)C1 [Compound 180, ((2-(((S)-3,3-dimethyl-1-oxo-1-((S)-2-((R)-3-phenylpiperidine-1-carbonyl)piperidin-1-yl)butan-2-yl)carbamoyl)benzo[b]thiophen-5-yl)difluoromethyl)phosphonic acid] | 1000 to 10000 | 100 to 1000 |
| CC(C)(C)[C@H](NC(=O)c1cc2cc(C(F)(F)P(=O)(O)O)ccc2s1)C(=O)N1CCCC[C@H]1C(=O)N1Cc2ccccc2C1 [Compound 181, (difluoro(2-(((S)-1-((S)-2-(isoindoline-2-carbonyl)piperidin-1-yl)-3,3-dimethyl-1-oxobutan-2-yl)carbamoyl)benzo[b]thiophen-5-yl)methyl)phosphonic acid] | > 10000 | > 10000 |
| CC(C)(C)[C@H](NC(=O)c1cc2cc(C(F)(F)P(=O)(O)O)ccc2s1)C(=O)N1CCCC[C@H]1C(=O)Nc1ncc(-c2ccccc2)s1 [Compound 182, ((2-(((S)-3,3-dimethyl-1-oxo-1-((S)-2-((5-phenylthiazol-2-yl)carbamoyl)piperidin-1-yl)butan-2-yl)carbamoyl)benzo[b]thiophen-5-yl)difluoromethyl)phosphonic acid] | 100 to 1000 | 1000 to 10000 |
| CC(C)(C)[C@H](NC(=O)c1cc2cc(C(F)(F)P(=O)(O)O)ccc2s1)C(=O)N1CCCCC[C@H]1C(=O)N1CCO[C@H](c2ccccc2)C1 [Compound 183, ((2-(((S)-3,3-dimethyl-1-oxo-1-((S)-2-((R)-2-phenylmorpholine-4-carbonyl)azepan-1-yl)butan-2-yl)carbamoyl)benzo[b]thiophen-5-yl)difluoromethyl)phosphonic acid] | 1000 to 10000 | 100 to 1000 |
| CC(C)(C)[C@H](NC(=O)c1cc2cc(C(F)(F)P(=O)(O)O)ccc2s1)C(=O)N1CCCCC[C@H]1C(=O)N1CCC[C@H](c2ccccc2)C1 [Compound 184, ((2-(((S)-3,3-dimethyl-1-oxo-1-((S)-2-((R)-3-phenylpiperidine-1-carbonyl)azepan-1-yl)butan-2-yl)carbamoyl)benzo[b]thiophen-5-yl)difluoromethyl)phosphonic acid] | 1000 to 10000 | 100 to 1000 |
